From patent publication US20260007681A1, “INDOLE DERIVATIVES AS ESTROGEN RECEPTOR DEGRADERS” (REGENTS OF THE UNIVERSITY OF MICHIGAN, priority 2022, published 2026) come the findings set out here.

One assay addresses ER in MCF-7 cells (Homo sapiens (Human), UniProt P03372). The experiment in a line: In-cell western (ICW) ER degradation assay in MCF-7 cells (Compounds A1-A70). It is filed as cell-based. The following applies: for DC50: ER degradation, 0.02 to 300 nM, read-out: MCF7 ICW DC50.
The target in the next assay is ERα_LBD(GST) (Homo sapiens (Human), UniProt P03372). The experiment in a line: IC50 measurements for binding to ERα_LBD (GST), LanthaScreen TR-FRET ERα competitive binding assay. As to conditions: 4 nM ERα_LBD(GST), 3 nM Fluormone ES2 Green tracer, 60 min; read-out: ERα HTRF IC50. The method, then:
• 1. ERα_LBD(GST) protein: 4 nM • 2. Tb Anti-GST: 2 nM • 3. Fluormone ES2 Green tracer: 3 nM • 4. Incubation time: 60 min • 5. DMSO: 1% • 6. Assay buffer: Adding 1M DTT to Nuclear receptor Buffer K for final 5 mM DTT. • 7. ZPE: 1% DMSO • 8. HPE: 1 μM ARV_471 • 9. LanthaScreen® TR-FRET ERα Competitive Binding Assay (ThermoFisher, #A15887)
• 1) Cherry pick 2 μL 10 mM compound stock to column 1 of a 384 intermediate plate • 2) Add 18 μL DMSO to column 1 to dilute compound to 1 mM. • 3) Transfer 10 μL 1 mM compound to column 1 of a LDV plate. • 4) Add 6 μl DMSO to column 2-10 of the LDV plate. • 5) Compounds undergo 3-fold serial dilution (3 μL+6 μL) in DMSO. • 6) Transfer 120 nL compound solution to assay plate. • ZPE: 120 nL 100% DMSO
Prepare complete nuclear receptor buffer K by adding 1 M DTT to nuclear receptor buffer K for a final concentration of 5 mM DTT. Complete nuclear receptor buffer K must be prepared fresh daily. Prepare 2X protein solution using complete nuclear receptor buffer K containing 8 nM ERα_LBD(GST) and 4 nM Tb Anti-GST. Then, prepare 2× Fluormone ES2 Green tracer (6 nM) using complete nuclear receptor buffer K. Add 6 μL 2× Fluormone ES2 green tracer into a compound plate (PerkinElmer 6008289) by dragonfly with one-tips-addition. Subsequently, add 6 μL 2× protein solution into the plate. Briefly and gently mix the 384-well plate on a plate shaker and incubate at room temperature protected from light for 60 min. The plate is sealed with a cover to minimize evaporation. Read the plate at wavelengths of 520 nm and 495 nm. Calculate the TR-FRET ratio by dividing the emission signal at 520 nm by the emission signal at 495 nm. Generate a binding curve by plotting the emission ratio vs. the log [ligand]. To determine the IC50 value, fit the data using XL-fit for a sigmoidal dose-response.

Another assay deals with ER in T47D cells (Homo sapiens (Human), UniProt P03372). The experiment in a line: In-cell western (ICW) ER degradation assay in T47D cells (Compounds A1-A70). The following applies: for DC50: ER degradation, 0.02 to 300 nM; for Dmax: T47D, read-out: T47D ICW Dmax (%). The class given is cell-based.
Chain of ER in T47D cells (P03372 whole entry): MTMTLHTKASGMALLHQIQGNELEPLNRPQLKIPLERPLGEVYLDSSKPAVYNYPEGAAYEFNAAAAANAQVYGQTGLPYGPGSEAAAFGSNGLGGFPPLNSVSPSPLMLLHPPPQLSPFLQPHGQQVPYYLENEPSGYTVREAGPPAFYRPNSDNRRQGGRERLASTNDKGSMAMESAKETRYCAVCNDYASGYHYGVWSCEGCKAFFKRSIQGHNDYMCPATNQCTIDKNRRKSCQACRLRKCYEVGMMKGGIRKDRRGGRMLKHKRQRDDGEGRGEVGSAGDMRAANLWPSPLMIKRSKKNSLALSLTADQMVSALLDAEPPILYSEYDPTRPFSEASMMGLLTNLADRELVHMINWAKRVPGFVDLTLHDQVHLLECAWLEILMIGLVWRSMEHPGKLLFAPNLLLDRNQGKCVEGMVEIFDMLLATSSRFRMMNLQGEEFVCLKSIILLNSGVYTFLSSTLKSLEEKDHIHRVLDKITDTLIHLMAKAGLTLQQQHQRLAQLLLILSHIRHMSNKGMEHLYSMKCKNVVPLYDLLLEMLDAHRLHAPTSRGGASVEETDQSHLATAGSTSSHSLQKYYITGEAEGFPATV
In a further assay the target is CRBN/DDB1 (Homo sapiens (Human), UniProt Q96SW2). It is filed as binding. As to conditions: His tagged CRBN+DDB-DLS7+CXU4, Cy5-labeled Thalidomide probe, one hour incubation; read-out: CRBN HTRF IC50. The method, then:
The binding potency was determined using H-TRF assay technology (Perkin Elmer). Compounds were serially diluted in DMSO and 0.2 μL volume was transferred to white 384-well plate.

Setting [1] is: MCF7, read-out: MCF7 ICW Dmax (%).
[2] abbreviates: maximal ER degradation, T47D cells, 16 hrs treatment.
Setting [3] is: MCF7, maximal ER degradation, MCF-7 cells, 16 hrs treatment, read-out: MCF7 ICW Dmax (%).

SMILES strings stand for the structures. Counter-ions that a name gives are not always drawn. Like-named read-outs stand apart in the source and are kept apart here.

Chain of CRBN/DDB1 (Q96SW2 whole entry): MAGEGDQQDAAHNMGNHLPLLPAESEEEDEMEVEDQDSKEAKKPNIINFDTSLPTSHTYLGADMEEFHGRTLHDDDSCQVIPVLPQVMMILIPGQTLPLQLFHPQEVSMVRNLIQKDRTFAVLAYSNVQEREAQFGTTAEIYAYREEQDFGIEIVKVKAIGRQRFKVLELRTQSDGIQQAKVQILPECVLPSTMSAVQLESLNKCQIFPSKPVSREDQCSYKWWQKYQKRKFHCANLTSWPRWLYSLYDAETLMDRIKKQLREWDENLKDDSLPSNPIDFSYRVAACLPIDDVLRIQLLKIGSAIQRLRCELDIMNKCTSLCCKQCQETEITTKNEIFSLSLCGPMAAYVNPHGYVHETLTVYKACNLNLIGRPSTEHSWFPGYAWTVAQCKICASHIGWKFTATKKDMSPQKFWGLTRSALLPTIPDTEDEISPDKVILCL
Chain of CRBN/DDB1 (Q16531 whole entry partner): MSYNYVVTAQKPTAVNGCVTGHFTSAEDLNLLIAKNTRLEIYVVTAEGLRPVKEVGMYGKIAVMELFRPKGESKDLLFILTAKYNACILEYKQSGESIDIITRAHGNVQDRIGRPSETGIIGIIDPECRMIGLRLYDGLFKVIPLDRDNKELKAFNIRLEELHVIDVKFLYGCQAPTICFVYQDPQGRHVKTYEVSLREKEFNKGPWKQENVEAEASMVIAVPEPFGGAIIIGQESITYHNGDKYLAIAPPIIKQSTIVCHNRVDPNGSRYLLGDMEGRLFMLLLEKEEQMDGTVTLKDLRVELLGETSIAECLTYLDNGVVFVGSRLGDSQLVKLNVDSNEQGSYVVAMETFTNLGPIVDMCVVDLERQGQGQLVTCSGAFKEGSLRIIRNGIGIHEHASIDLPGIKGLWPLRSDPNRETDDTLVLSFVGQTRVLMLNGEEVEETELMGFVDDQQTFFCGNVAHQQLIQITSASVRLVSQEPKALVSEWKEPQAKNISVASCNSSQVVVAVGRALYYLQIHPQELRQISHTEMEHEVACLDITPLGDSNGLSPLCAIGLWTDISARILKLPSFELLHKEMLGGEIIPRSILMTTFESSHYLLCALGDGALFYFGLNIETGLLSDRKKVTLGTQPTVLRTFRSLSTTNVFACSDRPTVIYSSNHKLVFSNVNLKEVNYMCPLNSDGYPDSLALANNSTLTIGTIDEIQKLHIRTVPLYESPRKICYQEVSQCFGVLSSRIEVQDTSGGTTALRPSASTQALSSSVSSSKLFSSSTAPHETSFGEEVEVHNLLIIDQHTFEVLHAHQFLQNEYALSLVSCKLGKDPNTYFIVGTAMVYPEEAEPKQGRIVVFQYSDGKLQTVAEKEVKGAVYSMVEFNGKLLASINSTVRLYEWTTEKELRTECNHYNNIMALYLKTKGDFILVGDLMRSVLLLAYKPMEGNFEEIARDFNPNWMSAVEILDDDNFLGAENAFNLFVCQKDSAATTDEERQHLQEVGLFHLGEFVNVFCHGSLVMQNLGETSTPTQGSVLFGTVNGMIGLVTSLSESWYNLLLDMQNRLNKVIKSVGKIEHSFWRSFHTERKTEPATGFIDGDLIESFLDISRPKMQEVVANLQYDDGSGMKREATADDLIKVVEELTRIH
Chain of ER in MCF-7 cells (P03372 whole entry): as the sequence (P03372 whole entry) above
Chain of ERα_LBD(GST) (P03372 311-547): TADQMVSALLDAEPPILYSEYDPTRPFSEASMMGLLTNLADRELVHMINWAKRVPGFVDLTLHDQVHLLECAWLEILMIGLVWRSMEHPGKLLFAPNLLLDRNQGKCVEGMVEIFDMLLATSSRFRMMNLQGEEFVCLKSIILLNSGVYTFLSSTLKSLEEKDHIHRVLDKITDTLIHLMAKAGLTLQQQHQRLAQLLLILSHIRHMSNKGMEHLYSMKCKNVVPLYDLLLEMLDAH

Turning to `COc1cc(N2CCC(CN3CCN4c5ccc6c(c5OC[C@@H]4C3)CN([C@H]3CCC(=O)NC3=O)C6=O)CC2)ccc1[C@@H]1c2[nH]c3ccccc3c2C[C@@H](C)N1CC(F)F` [Compound A12, (S)-3-((S)-7-((1-(4-((1R,3R)-2-(2,2-difluoroethyl)-3-methyl-2,3,4,9-tetrahydro-1H-pyrido[3,4-b]indol-1-yl)-3-methoxyphenyl)piperidin-4-yl)methyl)-1-oxo-1,3,5,5a,6,7,8,9-octahydro-2H-pyrazino[1′,2′:4,5][1,4]oxazino[2,3-e]isoindol-2-yl)piperidine-2,6-dione], on ER in MCF-7 cells (MCF-7 cells, 16 hrs treatment), the DC50 was less than 1 nM. For the same molecule, the “MCF7 ICW Dmax (%)” value at ER in MCF-7 cells (maximal ER degradation, MCF-7 cells, 16 hrs treatment) was “B (“B”: >50% and <75%)”. Moreover, the IC50 on ERα_LBD(GST) is less than 10 nM.

With `COc1cc(N2CCC(CN3CCN4c5ccc6c(c5OC[C@H]4C3)CN([C@H]3CCC(=O)NC3=O)C6=O)CC2)ccc1[C@@H]1c2[nH]c3ccccc3c2C[C@@H](C)N1CC(C)(C)F` [Compound A49, (S)-3-((R)-7-((1-(4-((1R,3R)-2-(2-fluoro-2-methylpropyl)-3-methyl-2,3,4,9-tetrahydro-1H-pyrido[3,4-b]indol-1-yl)-3-methoxyphenyl)piperidin-4-yl)methyl)-1-oxo-1,3,5,5a,6,7,8,9-octahydro-2H-pyrazino[1′,2′:4,5][1,4]oxazino[2,3-e]isoindol-2-yl)piperidine-2,6-dione], the DC50 on ER in T47D cells (T47D cells, 16 hrs treatment) was less than 1 nM; at ER in MCF-7 cells (MCF-7 cells, 16 hrs treatment), less than 1 nM. The values for the Dmax on ER in T47D cells and on ER in MCF-7 cells (setting [1]) were 50 to 75% and more than 75%, respectively. In addition, at ERα_LBD(GST), the IC50 was not below 10 nM.

Regarding `C[C@H]1Cc2c([nH]c3ccccc23)[C@H](c2cnc(N3CCC4(CC3)C[C@@H](CN3CCN5c6ccc7c(c6OC[C@@H]5C3)CN([C@@H]3CCC(=O)NC3=O)C7=O)CO4)nc2)N1CC(F)F` [Compound A59, (R)-3-((S)-7-(((S)-8-(5-((1S,3S)-2-(2,2-difluoroethyl)-3-methyl-2,3,4,9-tetrahydro-1H-pyrido[3,4-b]indol-1-yl)pyrimidin-2-yl)-1-oxa-8-azaspiro[4.5]decan-3-yl)methyl)-1-oxo-1,3,5,5a,6,7,8,9-octahydro-2H-pyrazino[1′,2′:4,5][1,4]oxazino[2,3-e]isoindol-2-yl)piperidine-2,6-dione formate], the DC50 at ER in T47D cells (T47D cells, 16 hrs treatment) is less than 1 nM; at ER in MCF-7 cells (MCF-7 cells, 16 hrs treatment), less than 1 nM. Besides, the maximal degradation (Dmax) on ER in T47D cells (setting [2]) and at ER in MCF-7 cells (setting [1]) was 50 to 75% throughout. Moreover, on ERα_LBD(GST), the IC50 was not below 10 nM.

`C[C@H]1Cc2c([nH]c3ccccc23)[C@H](c2cnc(N3CCC4(CC3)C[C@@H](CN3CCN5c6cc7c(cc6OC[C@H]5C3)C(=O)N([C@@H]3CCC(=O)NC3=O)C7)CO4)nc2)N1CC(F)F` [Compound A61, (R)-3-((R)-3-(((S)-8-(5-((1S,3S)-2-(2,2-difluoroethyl)-3-methyl-2,3,4,9-tetrahydro-1H-pyrido[3,4-b]indol-1-yl)pyrimidin-2-yl)-1-oxa-8-azaspiro[4.5]decan-3-yl)methyl)-8-oxo-1,2,3,4,4a,5,8,10-octahydro-9H-pyrazino[1′,2′:4,5][1,4]oxazino[2,3-f]isoindol-9-yl)piperidine-2,6-dione]: the DC50 is less than 1 nM at ER in T47D cells (T47D cells, 16 hrs treatment) and less than 1 nM on ER in MCF-7 cells (MCF-7 cells, 16 hrs treatment). Besides, the maximal degradation (Dmax) on ER in T47D cells (setting [2]) and at ER in MCF-7 cells (setting [1]) was 50 to 75% each time. Also, the half-inhibitory concentration (IC50) at ERα_LBD(GST) was not below 10 nM.

Take `C[C@H]1Cc2c([nH]c3ccccc23)[C@H](c2ccc(N3CCC(CN4CCN5c6ccc7c(c6OC[C@@H]5C4)CN([C@@H]4CCC(=O)NC4=O)C7=O)CC3)cn2)N1CC(F)(F)F` [Compound A62, (R)-3-((S)-7-((1-(6-((1R,3S)-3-methyl-2-(2,2,2-trifluoroethyl)-2,3,4,9-tetrahydro-1H-pyrido[3,4-b]indol-1-yl)pyridin-3-yl)piperidin-4-yl)methyl)-1-oxo-1,3,5,5a,6,7,8,9-octahydro-2H-pyrazino[1′,2′:4,5][1,4]oxazino[2,3-e]isoindol-2-yl)piperidine-2,6-dione]: the DC50 at ER in T47D cells (T47D cells, 16 hrs treatment) was in the range of 10 to 100 nM; on ER in MCF-7 cells (MCF-7 cells, 16 hrs treatment) it was 10 to 100 nM. In addition, the Dmax at ER in T47D cells (setting [2]) and at ER in MCF-7 cells (setting [3]) was 25 to 50% each time. For the same molecule, the IC50 at CRBN/DDB1 was in the range of 500 to 5000 nM.

As for `C[C@H]1Cc2c([nH]c3ccccc23)[C@H](c2ccc(N3CCC(CN4CCN5c6cc7c(cc6OC[C@H]5C4)C(=O)N([C@@H]4CCC(=O)NC4=O)C7)CC3)cn2)N1CC(F)(F)F` [Compound A64, (R)-3-((R)-3-((1-(6-((1R,3S)-3-methyl-2-(2,2,2-trifluoroethyl)-2,3,4,9-tetrahydro-1H-pyrido[3,4-b]indol-1-yl)pyridin-3-yl)piperidin-4-yl)methyl)-8-oxo-1,2,3,4,4a,5,8,10-octahydro-9H-pyrazino[1′,2′:4,5][1,4]oxazino[2,3-f]isoindol-9-yl)piperidine-2,6-dione], the DC50 on ER in T47D cells (T47D cells, 16 hrs treatment) was more than 100 nM; on ER in MCF-7 cells (MCF-7 cells, 16 hrs treatment), more than 100 nM. Besides, the Dmax on ER in T47D cells (setting [2]) and at ER in MCF-7 cells (setting [3]) was less than 25% throughout. Further, the 50% inhibitory concentration (IC50) on CRBN/DDB1 fell in the range of 500 to 5000 nM.

As to `C[C@@H]1Cc2c([nH]c3ccccc23)[C@H](c2cnc(N3CCC4(CC3)C[C@@H](CN3CCN5c6ccc(C(=O)N[C@H]7CCC(=O)NC7=O)nc6OC[C@H]5C3)CO4)nc2)N1CC(F)F` [Compound A65, (R)-3-(((S)-8-(5-((1S,3R)-2-(2,2-difluoroethyl)-3-methyl-2,3,4,9-tetrahydro-1H-pyrido[3,4-b]indol-1-yl)pyrimidin-2-yl)-1-oxa-8-azaspiro[4.5]decan-3-yl)methyl)-N-((S)-2,6-dioxopiperidin-3-yl)-1,2,3,4,4a,5-hexahydropyrazino[1,2-d]pyrido[2,3-b][1,4]oxazine-8-carboxamide], the DC50 at ER in T47D cells (T47D cells, 16 hrs treatment) is 1 to 10 nM; at ER in MCF-7 cells (MCF-7 cells, 16 hrs treatment) it was 1 to 10 nM. Also, the Dmax on ER in T47D cells (setting [2]) and at ER in MCF-7 cells (setting [3]) was 50 to 75% in each case. The IC50 on CRBN/DDB1 was in the range of 50 to 500 nM.

Turning to `C[C@H]1Cc2c([nH]c3ccccc23)[C@H](c2cnc(N3CCC4(CC3)C[C@@H](CN3CCC(c5ccc(N[C@@H]6CCC(=O)NC6=O)cc5)CC3)CO4)nc2)N1CC(F)F` [Compound A66, (R)-3-((4-(1-(((S)-8-(5-((1S,3S)-2-(2,2-difluoroethyl)-3-methyl-2,3,4,9-tetrahydro-1H-pyrido[3,4-b]indol-1-yl)pyrimidin-2-yl)-1-oxa-8-azaspiro[4.5]decan-3-yl)methyl)piperidin-4-yl)phenyl)amino)piperidine-2,6-dione], the half-maximal degradation concentration (DC50) on ER in T47D cells (T47D cells, 16 hrs treatment) is 1 to 10 nM; on ER in MCF-7 cells (MCF-7 cells, 16 hrs treatment), less than 1 nM. In addition, the Dmax is more than 75% on ER in T47D cells (setting [2]) and 50 to 75% at ER in MCF-7 cells (setting [3]). Also, on CRBN/DDB1, the IC50 lay in the range of 50 to 500 nM.

In the case of `C[C@H]1Cc2c([nH]c3ccccc23)[C@H](c2cnc(N3CCC4(CC3)C[C@H](CN3CCC(c5ccc(N[C@H]6CCC(=O)NC6=O)cc5)CC3)CO4)nc2)N1CC(F)F` [Compound A67, (S)-3-((4-(1-(((R)-8-(5-((1S,3S)-2-(2,2-difluoroethyl)-3-methyl-2,3,4,9-tetrahydro-1H-pyrido[3,4-b]indol-1-yl)pyrimidin-2-yl)-1-oxa-8-azaspiro[4.5]decan-3-yl)methyl)piperidin-4-yl)phenyl)amino)piperidine-2,6-dione], the DC50 was less than 1 nM at ER in T47D cells (T47D cells, 16 hrs treatment) and less than 1 nM on ER in MCF-7 cells (MCF-7 cells, 16 hrs treatment). Besides, the Dmax on ER in T47D cells (setting [2]) and on ER in MCF-7 cells (setting [3]) was 50 to 75% each time. Also, on CRBN/DDB1, the IC50 was 500 to 5000 nM.

As for `C[C@@H]1Cc2c([nH]c3ccccc23)[C@@H](c2cnc(N3CCC4(CC3)C[C@@H](CN3CCC(c5ccc(N[C@@H]6CCC(=O)NC6=O)cc5)CC3)CO4)nc2)N1CC(F)F` [Compound A70, (3R)-3-((4-(1-((8-(5-((1R,3R)-2-(2,2-difluoroethyl)-3-methyl-2,3,4,9-tetrahydro-1H-pyrido[3,4-b]indol-1-yl)pyrimidin-2-yl)-1-oxa-8-azaspiro[4.5]decan-3-yl)methyl)piperidin-4-yl)phenyl)amino)piperidine-2,6-dione], the DC50 at ER in T47D cells (T47D cells, 16 hrs treatment) is less than 1 nM; at ER in MCF-7 cells (MCF-7 cells, 16 hrs treatment), less than 1 nM. Moreover, the Dmax at ER in T47D cells (setting [2]) is more than 75%; at ER in MCF-7 cells (setting [3]), 50 to 75%. For the same molecule, the half-inhibitory concentration (IC50) on ERα_LBD(GST) was less than 10 nM.
